Data published in US10155740B2 (F.I.S.—FABBRICA ITALIANA SINTETICI S.P.A., priority 2016, dated 2018).
Entries after “also recorded” stand apart in the source; their conditions may differ. Where two headings read alike, the source gives them in different places. One block for each compound: values may come before it.

Tests used:
[1] = Preliminary solubility study of Pomalidomide Form O in a range of solvents; format: physicochemical; details: for solubility: thermodynamic from solid
Method: A preliminary study of the solubility of Pomalidomide Form O was performed in a range of solvents and under the operating conditions given in the following table 5: […]

[2] = pH 1.2, 4.5 and 6.8, cited from earlier work
[3] = 37° C., cited from earlier work
[4] = cited from earlier work
[5] = Relative stability of crystal forms from preparation tests by suspension in solvent; format: physicochemical; details: suspension in solvent (slurrying) tests
Method: The crystal form of Pomalidomide, named Form M, can be prepared by suspension of the form O under stirring for a night in isopropanol (slurrying) after seeding with Form B.
An alternative method for the preparation of Form M prescribes suspending the form O under stirring for four days (slurrying) in dioxane and seeding with Form A, as described in the present experimental part.
1 g of Pomalidomide Form O prepared as in Example 1, was suspended in 20 ml of isopropanol, seeded with crystals of Pomalidomide Form B and stirred overnight at room temperature, giving after filtration and drying, the new Pomalidomide Form M as crystalline powder.

[6] = Moisture stability test of Form M (RH 100%, XRPD); format: physicochemical; details: 100% relative humidity, one night, room temperature
Method: Pomalidomide Form M was subjected to a moisture stability test. 100 mg of Pomalidomide Form M, prepared as described above, were maintained for one night at 100% relative humidity (RH 100%), at room temperature and analyzed by XRPD.

solubility in AcOiBu ([1]; RT): >80 vol RT; | solubility in Anisole ([1]; RT): >80 vol. RT; | solubility in CHCl3 ([1]; RT): >80 vol. RT; | solubility in DMF ([1]; RT): 26 vol. | solubility in DMSO ([1]; RT): 6 vol. | solubility in Dioxane ([1]; RT): >80 vol. RT | solubility in Et2O ([1]; RT): >80 vol. RT; | solubility in MIBK ([1]; RT): >80 vol. RT; | solubility in MeNO2 ([1]; RT): >80 vol. RT; | solubility in NMP ([1]; RT): 8 vol. | solubility ([1]; ethanol, organic solvent or mixture, RT, read-out: solubility in EtOH): < 1000 µg/mL | solubility in AcOiBu ([1]; reflux): >80 vol. | solubility in Anisole ([1]; reflux): >80 vol. | solubility in CHCl3 ([1]; reflux): >80 vol. | solubility in Dioxane ([1]; reflux): <80 vol. | solubility in Et2O ([1]; reflux): >80 vol. | solubility in MIBK ([1]; reflux): >80 vol. | solubility in MeNO2 ([1]; reflux): <80 vol. reflux | solubility ([1]; water, RT, read-out: solubility in H2O): < 1000 µg/mL
Structure (SMILES): Nc1cccc2c1C(=O)N(C1CCC(=O)NC1=O)C2=O (racemic) [Pomalidomide Form O]

Structure (SMILES): Nc1cccc2c1C(=O)N(C1CCC(=O)NC1=O)C2=O (racemic) [Pomalidomide, (R,S)-4-Amino-2-(2,6-dioxo-3-piperidinyl)-isoindol-1,3-dione]
solubility of dose in 250 ml of aqueous medium ([2]; clinical dose of 4 mg): is not | solubility of dose in 250 ml of aqueous medium ([2]; dose of 2 mg): soluble | Pomalidomide solubility after 24 hours ([3]; pH 1.2 (0.05N HCl)): 15.0 µg/mL | Pomalidomide solubility after 24 hours ([3]; pH 4.5 (0.05M acetato)): 14.6 µg/mL | Pomalidomide solubility after 24 hours ([3]; pH 6.8 (0.05M fosfato)): 13.2 µg/mL | solubility in organic solvents ([4]; absolute ethanol, ethyl acetate, heptane, methanol, 2-propanol, toluene): very slightly soluble | solubility in organic solvents ([4]; acetone, acetonitrile, methylene chloride, methyl ethyl ketone, THF): slightly soluble

Structure (SMILES): Nc1cccc2c1C(=O)N(C1CCC(=O)NC1=O)C2=O (stereo not shown) [Pomalidomide Form M]
relative stability of crystal form [5]: higher stability than both Form B and Form O | hygroscopicity / water take-up [6]: did not take-up any water; also recorded: non-hygroscopic
